Tests used:
Experiment in all cases: relative viability (nuclei count vs DMSO), 5 days (fraction); higher = more cells survive
EHT 1864 + Olaparib = compound: C1COCCN1CC2=CC(=O)C(=CO2)OCCCCCSC3=C4C=CC(=CC4=NC=C3)C(F)(F)F [EHT 1864] + O=C(c1cc(Cc2n[nH]c(=O)c3ccccc23)ccc1F)N1CCN(C(=O)C2CC2)CC1 [Olaparib] (partner 8 µM)
Method in brief: (§1)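 Values are medians from duplicate plates. Each reflects relative viability, defined as the nuclei count of treated wells over that of vehicle wells. Lung cancer cell lines in 1536-well plates were pin-tool dosed one day after seeding with one drug alone or with a fixed anchor-drug dose plus five library-drug doses (not always all listed) in √10 steps, then fixed, stained and imaged at 4× after 5 days.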

EHT 1864 + Palbociclib = compound: C1COCCN1CC2=CC(=O)C(=CO2)OCCCCCSC3=C4C=CC(=CC4=NC=C3)C(F)(F)F [EHT 1864] + CC(=O)c1c(C)c2cnc(Nc3ccc(N4CCNCC4)cn3)nc2n(C2CCCC2)c1=O [Palbociclib] (partner 0.5 µM)
Method in brief: as §1

EHT 1864 + Alpelisib = compound: C1COCCN1CC2=CC(=O)C(=CO2)OCCCCCSC3=C4C=CC(=CC4=NC=C3)C(F)(F)F [EHT 1864] + Cc1nc(NC(=O)N2CCC[C@H]2C(N)=O)sc1-c1ccnc(C(C)(C)C(F)(F)F)c1 [Alpelisib] (partner 2 µM)
Method in brief: as §1

EHT 1864 + Pemetrexed = compound: C1COCCN1CC2=CC(=O)C(=CO2)OCCCCCSC3=C4C=CC(=CC4=NC=C3)C(F)(F)F [EHT 1864] + Nc1nc2[nH]cc(CCc3ccc(C(=O)N[C@@H](CCC(=O)O)C(=O)O)cc3)c2c(=O)[nH]1 [Pemetrexed] (partner 0.2 µM)
Method in brief: as §1

Cell Line	relative viability (EHT 1864 + Olaparib; first compound 0.04 µM)	relative viability (EHT 1864 + Olaparib; first compound 0.1265 µM)	relative viability (EHT 1864 + Olaparib; first compound 0.4 µM)	relative viability (EHT 1864 + Olaparib; first compound 1.265 µM)	relative viability (EHT 1864 + Olaparib; first compound 4 µM)	relative viability (EHT 1864 + Palbociclib; first compound 0.04 µM)	relative viability (EHT 1864 + Palbociclib; first compound 0.1265 µM)	relative viability (EHT 1864 + Palbociclib; first compound 0.4 µM)	relative viability (EHT 1864 + Palbociclib; first compound 1.265 µM)	relative viability (EHT 1864 + Palbociclib; first compound 4 µM)	relative viability (EHT 1864 + Alpelisib; first compound 0.04 µM)	relative viability (EHT 1864 + Alpelisib; first compound 0.1265 µM)	relative viability (EHT 1864 + Alpelisib; first compound 0.4 µM)	relative viability (EHT 1864 + Alpelisib; first compound 1.265 µM)	relative viability (EHT 1864 + Alpelisib; first compound 4 µM)	relative viability (EHT 1864 + Pemetrexed; first compound 0.04 µM)	relative viability (EHT 1864 + Pemetrexed; first compound 0.1265 µM)	relative viability (EHT 1864 + Pemetrexed; first compound 0.4 µM)	relative viability (EHT 1864 + Pemetrexed; first compound 1.265 µM)	relative viability (EHT 1864 + Pemetrexed; first compound 4 µM)
LXF-289	1.12	0.963	1.02	0.953	0.97	0.594	0.572	0.542	0.537	0.581	1.1	1	1	0.968	0.912	0.857	0.894	0.835	0.769	0.843
NCI-H23	0.295	0.271	0.284	0.296	0.32	0.559	0.429	0.531	0.546	0.492	0.664		0.781	0.738	0.807	0.715	0.549	0.632	0.671	0.748
NCI-H322M	0.704	0.822	0.811	0.782	0.879	0.488	0.488	0.434	0.456	0.465	0.763	0.747	0.821	0.81	0.959	0.606	0.64	0.596	0.678	0.604
NCI-H358	0.626	0.594	0.574	0.551	0.548	0.14	0.117	0.133	0.135	0.124	0.798		0.877	0.965	0.837	0.173	0.169	0.178	0.189	0.168
NCI-H441	0.562		0.503	0.477	0.617	0.233		0.215	0.195	0.226	0.73	0.644	0.532	0.779	0.729	0.28		0.286	0.241	0.255
NCI-H460	0.461	0.387	0.389	0.363	0.351		0.155	0.16	0.16	0.173	0.427	0.57	0.475	0.444	0.486		0.0604	0.0667	0.0607	0.0677
NCI-H520	0.271	0.318	0.354	0.419	0.351	0.227	0.212	0.258	0.225	0.231	0.967	0.954	0.883	0.889	0.876	0.67	0.588	0.758	0.627	0.604
NCI-H647	0.493	0.503	0.539	0.312	0.613	0.414	0.351	0.451	0.373	0.375	1.21	1.04	1.26	0.977	1.18	0.203	0.13	0.164	0.157	0.177
NCI-H650	0.425	0.386	0.383	0.39	0.413	0.332	0.256	0.346	0.327	0.325	1.05		1.23	1.02	1.09	0.975	0.75	0.968	0.947	0.927
NCI-H661	0.799	0.685	0.684	0.606	0.567	0.4	0.389	0.41	0.381	0.352	0.596	0.672	0.527	0.465	0.531	0.904	0.884	0.871	0.844	0.682
NCI-H838	0.743	0.726	0.788	0.79	0.807	0.208	0.185	0.266	0.223	0.244	0.969	0.881	0.988	0.921	0.827	0.249	0.236	0.236	0.233	0.219
NCI-H1355	0.718	0.657	0.772	0.727	0.706	0.411	0.357	0.391	0.389	0.414	0.766	0.624	0.699	0.856	0.89	1.14	0.872	1.02	1.1	0.985
NCI-H1395	0.472	0.548	0.48	0.488	0.459	0.61	0.595	0.631	0.57	0.614	1.54	0.942	1.01	0.967	1.38	0.923	0.73	0.89	0.805	0.915
NCI-H1437	0.621	0.587	0.622	0.523	0.523	0.311	0.293	0.309	0.236	0.302	0.988	1.04	0.899	0.805	0.652	0.321	0.302	0.263	0.286	0.246
NCI-H1651	0.165	0.184	0.177	0.174	0.191	0.529	0.501	0.534	0.504	0.522	0.917	0.876	0.949	0.967	0.878	0.529	0.662	0.565	0.553	0.55
NCI-H1666	0.732	0.756	0.73	0.839	0.775	0.644	0.611	0.667	0.583	0.636	0.898	1.12	0.978	0.98	0.966	1.02	0.831	0.896	0.786	0.843
NCI-H1734	0.71	0.64	0.619	0.679	0.635	0.411	0.314	0.337	0.337	0.356	0.741	0.629	0.627	0.609	0.64	0.45	0.385	0.463	0.394	0.432

Cell Line	relative viability (EHT 1864 + Olaparib; first compound 0.04 µM)	relative viability (EHT 1864 + Olaparib; first compound 0.1265 µM)	relative viability (EHT 1864 + Olaparib; first compound 0.4 µM)	relative viability (EHT 1864 + Olaparib; first compound 1.265 µM)	relative viability (EHT 1864 + Olaparib; first compound 4 µM)	relative viability (EHT 1864 + Palbociclib; first compound 0.04 µM)	relative viability (EHT 1864 + Palbociclib; first compound 0.1265 µM)	relative viability (EHT 1864 + Palbociclib; first compound 0.4 µM)	relative viability (EHT 1864 + Palbociclib; first compound 1.265 µM)	relative viability (EHT 1864 + Palbociclib; first compound 4 µM)	relative viability (EHT 1864 + Alpelisib; first compound 0.04 µM)	relative viability (EHT 1864 + Alpelisib; first compound 0.1265 µM)	relative viability (EHT 1864 + Alpelisib; first compound 0.4 µM)	relative viability (EHT 1864 + Alpelisib; first compound 1.265 µM)	relative viability (EHT 1864 + Alpelisib; first compound 4 µM)	relative viability (EHT 1864 + Pemetrexed; first compound 0.04 µM)	relative viability (EHT 1864 + Pemetrexed; first compound 0.1265 µM)	relative viability (EHT 1864 + Pemetrexed; first compound 0.4 µM)	relative viability (EHT 1864 + Pemetrexed; first compound 1.265 µM)	relative viability (EHT 1864 + Pemetrexed; first compound 4 µM)
NCI-H1755	0.912	0.817	0.822	0.817	0.829	0.46	0.437	0.42	0.43	0.42	0.897	0.844	0.861	0.945	0.877	0.477	0.376	0.389	0.468	0.388
NCI-H1792	0.466		0.339	0.359	0.416	0.618	0.694	0.683	0.626	0.742	0.664	0.584	0.627	0.72	0.792	0.804		0.735	0.776	1.1
NCI-H1793	0.797	0.736	0.971	0.681	0.874	0.242	0.281	0.315	0.28	0.373		0.635	0.815	0.847	0.7	0.674	0.699	0.929	0.814	0.828
NCI-H1915	0.287		0.251	0.257	0.257	0.554		0.53	0.503	0.516	1.12		0.988	1.05	1.05	0.474		0.52	0.5	0.477
NCI-H1944	0.376		0.392	0.416	0.367	0.327		0.353	0.311	0.332	0.828		0.805	0.803	0.984	0.669		0.64	0.58	0.693
NCI-H1975	0.812	0.828	0.781	0.791	0.719	0.641	0.647	0.4	0.348	0.552	0.628	0.614	0.6	0.618	0.572	0.271	0.28	0.274	0.291	0.285
NCI-H1993	1.17		0.971	0.966	1.05	0.693		0.682	0.664	0.741	0.733	0.658	0.568	0.679	0.732	0.58		0.595	0.623	0.556
NCI-H2009	0.618	0.548	0.702	0.66	0.49	0.228	0.209	0.193	0.24	0.173	1.16	1.13	1.11	1.12	0.971	1.01	0.95	1.01	0.965	0.809
NCI-H2023	0.403	0.525	0.411	0.48	0.461	0.33	0.318	0.354	0.382	0.364	0.513	0.597	0.564	0.694	0.546	0.232	0.258	0.166	0.201	0.197
NCI-H2085	0.783	0.762	0.754	0.732	0.713	0.446	0.459	0.456	0.451	0.417	0.998	0.875	0.9	0.982	0.869	0.908	0.646	0.969	0.967	0.882
NCI-H2087	0.545		0.468	0.545	0.534	0.266		0.223	0.156	0.224	0.929	1	0.902	1.1	0.802	0.691		0.596	0.642	0.657
NCI-H2126	0.916	0.926	0.887	0.882	0.915	0.338	0.365	0.333	0.336	0.349	0.755	0.757	0.718	0.801	0.748	0.707	0.603	0.661	0.726	0.633
NCI-H2170	0.595	0.628	0.61	0.581	0.547	0.381	0.308	0.408	0.356	0.395	0.751	0.759	0.771	0.793	0.793	0.279	0.251	0.262	0.279	0.266
NCI-H2228	0.614	0.661	0.66		0.61	0.881	0.634	0.642		0.777	0.776	0.813	0.732	0.594	0.713	0.323	0.341	0.318		0.34
NCI-H2347	0.624	0.452	0.53	0.541	0.402	0.428	0.382	0.368	0.439	0.364	1.02	0.868	0.989	1.03	1.2	0.402	0.403	0.459	0.465	0.419
NCI-H2405	0.895	0.815	0.912	0.788	0.853	0.536	0.497	0.469	0.5	0.538	0.789	0.767	0.877		0.719	1.13	0.945	1.03	1.07	0.973

Reference: the supplement of paper PMC10307832
